Experimental findings from US20250186541A1, “DLL3 TARGETING PEPTIDES AND CONSTRUCTS THEREOF” (MARIANA ONCOLOGY INC., priority 2023, published 2025) are described below.

In this assay the target is T1, human DLL3 (Homo sapiens, UniProt Q9NYJ7).
T1 construct: biotin (biotinylated)
T1 sequence (Q9NYJ7 27-618): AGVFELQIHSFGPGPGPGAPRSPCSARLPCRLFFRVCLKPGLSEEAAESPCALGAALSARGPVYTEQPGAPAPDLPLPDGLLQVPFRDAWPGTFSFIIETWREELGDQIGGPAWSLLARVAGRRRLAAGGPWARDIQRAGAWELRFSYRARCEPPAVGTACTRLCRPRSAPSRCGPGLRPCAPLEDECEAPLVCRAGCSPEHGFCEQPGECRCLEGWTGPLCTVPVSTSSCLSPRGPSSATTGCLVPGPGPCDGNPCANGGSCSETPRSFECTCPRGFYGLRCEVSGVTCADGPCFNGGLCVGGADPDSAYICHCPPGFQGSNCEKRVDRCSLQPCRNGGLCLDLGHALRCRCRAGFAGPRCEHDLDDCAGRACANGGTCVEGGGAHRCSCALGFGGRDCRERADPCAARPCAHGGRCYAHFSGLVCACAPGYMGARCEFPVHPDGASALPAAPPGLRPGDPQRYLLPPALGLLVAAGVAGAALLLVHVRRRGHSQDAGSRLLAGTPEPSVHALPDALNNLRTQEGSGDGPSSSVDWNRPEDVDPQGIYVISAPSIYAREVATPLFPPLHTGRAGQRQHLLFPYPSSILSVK
Briefly: Affinity determination by Surface Plasmon Resonance (SPR), Biacore, 1:1 binding model. The following applies: biotinylated human DLL3 on streptavidin chip, 25° C.; NB = nonbinding. A digest of the protocol:
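SPR with biotinylated human DLL3 captured on a streptavidin chip, with a reference surface subtracted. Samples were injected at several concentrations at 100 μL/min in phosphate buffer with 137 mM NaCl, 2.7 mM KCl, 0.05% P20 and 2% DMSO. Kinetic and affinity constants came from a 1:1 binding fit.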
A general note: Surface plasmon resonance follows binding to a sensor surface in real time, without labels.

Bridge positions count the residues as written; N and C are the ends. Square brackets hold non-standard residues; d marks the D form. Peptide text beside a SMILES is read from it. * marks the point of attachment. DOTA = O=C(O)CN1CCN(CC(=O)O)CCN(CC(=O)*)CCN(CC(=O)O)CC1; 1Nal = N[C@@H](Cc1cccc2ccccc12)C(=O)O; 2Nal = N[C@@H](Cc1ccc2ccccc2c1)C(=O)O; Phe(2-F) = N[C@@H](Cc1ccccc1F)C(=O)O; NMeF = CN[C@@H](Cc1ccccc1)C(=O)O; αMeF = C[C@](N)(Cc1ccccc1)C(=O)O; Chg = N[C@H](C(=O)O)C1CCCCC1; αMeP = C[C@@]1(C(=O)O)CCCN1; dNle = CCCC[C@@H](N)C(=O)O; NMeC = CN[C@@H](CS)C(=O)O; dNMeA = CN[C@H](C)C(=O)O Bounds are passed on as bounds.

On to `CC(=O)N[C@H](C(=O)N[C@@H](CO)C(=O)N[C@@H](CC(=O)O)C(=O)N[C@H]1CSSC[C@@H](C(=O)N2CCC[C@H]2C(=O)N[C@@H](Cc2ccccc2)C(=O)N[C@@H](CC(=O)O)C(N)=O)NC(=O)[C@H](CC(N)=O)NC(=O)[C@H](CCCCNC(=O)CN2CCN(CC(=O)O)CCN(CC(=O)O)CCN(CC(=O)O)CC2)NC(=O)[C@H](CCC(N)=O)NC(=O)[C@H](CC(C)C)NC(=O)[C@H](Cc2c[nH]c3ccccc23)NC1=O)C1CCCCC1` [compound 99, Ac-(Chg)-S-D-C(3)-W-L-Q-[L-Lys(DOTA)]-N-C(3)-P-F-D-CONH2] (Ac-[Chg]SDCWLQK(DOTA)NCPFD-NH2; disulfide 4-10), for which the Kd – broadly, the concentration at which binding is half-saturated – is more than 100 nM.

As for `CC(=O)N[C@H](C(=O)N[C@@H](CO)C(=O)N[C@@H](CC(=O)O)C(=O)N[C@H]1CSSC[C@@H](C(=O)N2CCC[C@H]2C(=O)N[C@@H](Cc2ccccc2)C(=O)N[C@@H](CC(=O)O)C(N)=O)NC(=O)[C@H](CCCCNC(=O)CN2CCN(CC(=O)O)CCN(CC(=O)O)CCN(CC(=O)O)CC2)NC(=O)[C@H](Cc2c[nH]c3ccccc23)NC(=O)[C@H](CCC(N)=O)NC(=O)[C@H](CC(C)C)NC(=O)[C@H](Cc2c[nH]c3ccccc23)NC1=O)C1CCCCC1` [compound 100, Ac-(Chg)-S-D-C(3)-W-L-Q-W-[L-Lys(DOTA)]-C(3)-P-F-D-CONH2] (Ac-[Chg]SDCWLQWK(DOTA)CPFD-NH2; disulfide 4-10), the dissociation constant (Kd) was more than 300 nM. In turn, `CC(=O)N[C@H](C(=O)N[C@@H](CO)C(=O)N[C@@H](CC(=O)O)C(=O)N[C@H]1CSSC[C@@H](C(=O)N[C@@H](CCCCNC(=O)CN2CCN(CC(=O)O)CCN(CC(=O)O)CCN(CC(=O)O)CC2)C(=O)N[C@@H](Cc2ccccc2)C(=O)N[C@@H](CC(=O)O)C(N)=O)NC(=O)[C@H](CC(N)=O)NC(=O)[C@H](Cc2c[nH]c3ccccc23)NC(=O)[C@H](CCC(N)=O)NC(=O)[C@H](CC(C)C)NC(=O)[C@H](Cc2c[nH]c3ccccc23)NC1=O)C1CCCCC1` [compound 101, Ac-(Chg)-S-D-C(3)-W-L-Q-W-N-C(3)-[L-Lys(DOTA)]-F-D-CONH2] (Ac-[Chg]SDCWLQWNCK(DOTA)FD-NH2; disulfide 4-10) registered an equilibrium dissociation constant (Kd) of more than 300 nM.

For the compound `CC(=O)N[C@H](C(=O)N[C@@H](CO)C(=O)N[C@@H](CC(=O)O)C(=O)N[C@H]1CSSC[C@@H](C(=O)N2CCC[C@H]2C(=O)N[C@@H](CCCCNC(=O)CN2CCN(CC(=O)O)CCN(CC(=O)O)CCN(CC(=O)O)CC2)C(=O)N[C@@H](CC(=O)O)C(N)=O)NC(=O)[C@H](CC(N)=O)NC(=O)[C@H](Cc2c[nH]c3ccccc23)NC(=O)[C@H](CCC(N)=O)NC(=O)[C@H](CC(C)C)NC(=O)[C@H](Cc2c[nH]c3ccccc23)NC1=O)C1CCCCC1` [compound 102, Ac-(Chg)-S-D-C(3)-W-L-Q-W-N-C(3)-P-[L-Lys(DOTA)]-D-CONH2] (Ac-[Chg]SDCWLQWNCPK(DOTA)D-NH2; disulfide 4-10), the Kd is more than 100 nM. Consider `CCCC[C@@H](NC(C)=O)C(=O)N[C@@H](CO)C(=O)N[C@@H](CC(=O)O)C(=O)N[C@H]1CSSC[C@@H](C(=O)N2CCC[C@H]2C(=O)N[C@@H](Cc2ccccc2)C(=O)N[C@@H](CC(=O)O)C(=O)N[C@H](CCCCNC(=O)CN2CCN(CC(=O)O)CCN(CC(=O)O)CCN(CC(=O)O)CC2)C(N)=O)NC(=O)[C@H](CC(N)=O)NC(=O)[C@H](Cc2c[nH]c3ccccc23)NC(=O)[C@H](CCC(N)=O)NC(=O)[C@H](CC(C)C)NC(=O)[C@H](Cc2cccc3ccccc23)NC1=O` [compound 103, Ac-(D-Nle)-S-D-C(3)-(1Nal)-L-Q-W-N-C(3)-P-F-D-D-Lys(DOTA)-CONH2] (Ac-[dNle]SDC[1Nal]LQWNCPFD[dK](DOTA)-NH2; disulfide 4-10), for which binding was put at a Kd of 0.35 nM. The result for `CC(=O)N[C@H](C)C(=O)N[C@@H](CO)C(=O)N[C@@H](CC(=O)O)C(=O)N[C@H]1CSSC[C@@H](C(=O)N2CCC[C@H]2C(=O)N[C@@H](Cc2ccccc2)C(=O)N[C@@H](CC(=O)O)C(=O)N[C@H](CCCCNC(=O)CN2CCN(CC(=O)O)CCN(CC(=O)O)CCN(CC(=O)O)CC2)C(N)=O)NC(=O)[C@H](CC(N)=O)NC(=O)[C@H](Cc2c[nH]c3ccccc23)NC(=O)[C@H](CCC(N)=O)NC(=O)[C@H](CC(C)C)NC(=O)[C@H](Cc2cccc3ccccc23)NC1=O` [compound 104, Ac-(D-Ala)-S-D-C(3)-(1Nal)-L-Q-W-N-C(3)-P-F-D-D-Lys(DOTA)-CONH2] (Ac-[dA]SDC[1Nal]LQWNCPFD[dK](DOTA)-NH2; disulfide 4-10) reads 0.35 nM. Compound `CC(=O)N[C@H](C(=O)N[C@@H](CO)C(=O)N[C@@H](CC(=O)O)C(=O)N[C@H]1CSSC[C@@H](C(=O)N(C)[C@H](C)C(=O)N[C@@](C)(Cc2ccccc2)C(=O)N[C@@H](CC(=O)O)C(=O)N[C@H](CCCCNC(=O)CN2CCN(CC(=O)O)CCN(CC(=O)O)CCN(CC(=O)O)CC2)C(N)=O)NC(=O)[C@H](CC(N)=O)NC(=O)[C@H](Cc2c[nH]c3ccccc23)NC(=O)[C@H](CCC(N)=O)NC(=O)[C@H](CC(C)C)NC(=O)[C@H](Cc2cccc3ccccc23)NC1=O)C1CCCCC1` [compound 109, Ac-(Chg)-S-D-C(3)-(1Nal)-L-Q-W-N-C(3)-(NMeD-Ala)-(aMe-F)-D-D-Lys(DOTA)-CONH2] (Ac-[Chg]SDC[1Nal]LQWNC[dNMeA][αMeF]D[dK](DOTA)-NH2; disulfide 4-10) yielded a Kd of 0.96 nM.

`CC(=O)N[C@H](C(=O)N[C@@H](CO)C(=O)N[C@@H](CC(=O)O)C(=O)N[C@H]1CSSC[C@@H](C(=O)N(C)[C@H](C)C(=O)N(C)[C@@H](Cc2ccccc2)C(=O)N[C@@H](CC(=O)O)C(=O)N[C@H](CCCCNC(=O)CN2CCN(CC(=O)O)CCN(CC(=O)O)CCN(CC(=O)O)CC2)C(N)=O)NC(=O)[C@H](CC(N)=O)NC(=O)[C@H](Cc2c[nH]c3ccccc23)NC(=O)[C@H](CCC(N)=O)NC(=O)[C@H](CC(C)C)NC(=O)[C@H](Cc2cccc3ccccc23)NC1=O)C1CCCCC1` [compound 110, Ac-(Chg)-S-D-C(3)-(1Nal)-L-Q-W-N-C(3)-(NMeD-Ala)-(NMe-F)-D-D-Lys(DOTA)-CONH2] (Ac-[Chg]SDC[1Nal]LQWNC[dNMeA][NMeF]D[dK](DOTA)-NH2; disulfide 4-10) came in with a Kd of more than 30 nM. The result for `CC(=O)N[C@H](C(=O)N[C@@H](CO)C(=O)N[C@@H](CC(=O)O)C(=O)N[C@H]1CSSC[C@@H](C(=O)N2CCC[C@H]2C(=O)N[C@@H](Cc2ccccc2)C(=O)N[C@@H](CC(=O)O)C(=O)N[C@H](CCCCNC(=O)CN2CCN(CC(=O)O)CCN(CC(=O)O)CCN(CC(=O)O)CC2)C(N)=O)NC(=O)[C@H](CC(N)=O)NC(=O)[C@H](Cc2ccc3ccccc3c2)NC(=O)[C@H](CCC(N)=O)NC(=O)[C@H](CC(C)C)NC(=O)[C@H](Cc2cccc3ccccc23)NC1=O)C1CCCCC1` [compound 114, Ac-(Chg)-S-D-C(3)-(1Nal)-L-Q-(2Nal)-N-C(3)-P-F-D-D-Lys(DOTA)-CONH2] (Ac-[Chg]SDC[1Nal]LQ[2Nal]NCPFD[dK](DOTA)-NH2; disulfide 4-10) reads 0.38 nM. In the case of `CC(=O)N[C@H](C(=O)N[C@@H](CO)C(=O)N[C@@H](CC(=O)O)C(=O)N[C@H]1CSSC[C@@H](C(=O)N2CCC[C@H]2C(=O)N[C@@H](Cc2ccccc2)C(=O)N[C@@H](CC(=O)O)C(=O)N[C@H](CCCCNC(=O)CN2CCN(CC(=O)O)CCN(CC(=O)O)CCN(CC(=O)O)CC2)C(N)=O)N(C)C(=O)[C@H](CC(N)=O)NC(=O)[C@H](Cc2c[nH]c3ccccc23)NC(=O)[C@H](CCC(N)=O)NC(=O)[C@H](CC(C)C)NC(=O)[C@H](Cc2cccc3ccccc23)NC1=O)C1CCCCC1` [compound 115, Ac-(Chg)-S-D-C(3)-(1Nal)-L-Q-W-N-(NMe-Cys)-P-F-D-D-Lys(DOTA)-CONH2] (Ac-[Chg]SDC[1Nal]LQWN[NMeC]PFD[dK](DOTA)-NH2; disulfide 4-10) it was more than 100 nM; in that of `CC(=O)N[C@H](C(=O)N[C@@H](CO)C(=O)N[C@@H](CC(=O)O)C(=O)N[C@H]1CSSC[C@@H](C(=O)N2CCC[C@@H]2C(=O)N[C@@H](Cc2ccccc2)C(=O)N[C@@H](CC(=O)O)C(=O)N[C@H](CCCCNC(=O)CN2CCN(CC(=O)O)CCN(CC(=O)O)CCN(CC(=O)O)CC2)C(N)=O)NC(=O)[C@H](CC(N)=O)NC(=O)[C@H](Cc2c[nH]c3ccccc23)NC(=O)[C@H](CCC(N)=O)NC(=O)[C@H](CC(C)C)NC(=O)[C@H](Cc2cccc3ccccc23)NC1=O)C1CCCCC1` [compound 116, Ac-(Chg)-S-D-C(3)-(1Nal)-L-Q-W-N-C(3)-(D-Pro)-F-D-D-Lys(DOTA)-CONH2] (Ac-[Chg]SDC[1Nal]LQWNC[dP]FD[dK](DOTA)-NH2; disulfide 4-10), more than 30 nM; in that of `CC(=O)N[C@H](C(=O)N[C@@H](CO)C(=O)N[C@@H](CC(=O)O)C(=O)N[C@H]1CSSC[C@@H](C(=O)N2CCC[C@@]2(C)C(=O)N[C@@H](Cc2ccccc2F)C(=O)N[C@@H](CC(=O)O)C(=O)N[C@H](CCCCNC(=O)CN2CCN(CC(=O)O)CCN(CC(=O)O)CCN(CC(=O)O)CC2)C(N)=O)NC(=O)[C@H](CC(N)=O)NC(=O)[C@H](Cc2c[nH]c3ccccc23)NC(=O)[C@H](CCC(N)=O)NC(=O)[C@H](CC(C)C)NC(=O)[C@H](Cc2cccc3ccccc23)NC1=O)C1CCCCC1` [compound 117, Ac-(Chg)-S-D-C(3)-(1Nal)-L-Q-W-N-C(3)-(aMe-P)-(2F-Phe)-D-D-Lys(DOTA)-CONH2] (Ac-[Chg]SDC[1Nal]LQWNC[αMeP][Phe(2-F)]D[dK](DOTA)-NH2; disulfide 4-10), 0.66 nM.
